Drawing on PubChem BioAssay AID256 (DTP/NCI, 2004), this text covers T/C for 25 compounds.

This experiment concerns CD2F1 mice, L1210 leukemia ip, survival T/C. In words: NCI In Vivo Anticancer Drug Screen. Data for tumor model L1210 Leukemia (intraperitoneal) in CD2F1 (CDF1) mice. The following applies: higher = longer survival. The procedure, abridged: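 Ratio T/C, where T is the treated-group value and C the vehicle-dosed control value, from mice implanted with a transplantable tumor.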

[1] abbreviates: endpoint: mean survival time, dose: 100.0 mg/kg/injection, schedule: Q01DX001 (ip), vehicle: saline.
Where [2] appears, read: endpoint: mean survival time, dose: 200.0 mg/kg/injection, schedule: Q01DX001 (ip), vehicle: saline.
Setting [3] is: endpoint: mean survival time, dose: 400.0 mg/kg/injection, schedule: Q01DX001 (ip), vehicle: saline.
The mark [4] stands for this setting: endpoint: mean survival time, dose: 100.0 mg/kg/injection, schedule: Q01DX009 (ip), vehicle: saline with Tween-80.
Where [5] appears, read: endpoint: mean survival time, dose: 100.0 mg/kg/injection, schedule: Q04DX003 (ip), vehicle: saline with Tween-80.
[6] abbreviates: endpoint: mean survival time, dose: 200.0 mg/kg/injection, schedule: Q01DX009 (ip), vehicle: saline with Tween-80.
The mark [7] stands for this setting: endpoint: mean survival time, dose: 200.0 mg/kg/injection, schedule: Q04DX003 (ip), vehicle: saline with Tween-80.
[8] abbreviates: endpoint: mean survival time, dose: 400.0 mg/kg/injection, schedule: Q04DX003 (ip), vehicle: saline with Tween-80.
Setting [9] is: endpoint: mean survival time, dose: 75.0 mg/kg/injection, schedule: Q01DX001 (ip), vehicle: saline.
[10] abbreviates: endpoint: mean survival time, dose: 150.0 mg/kg/injection, schedule: Q01DX001 (ip), vehicle: saline.
Setting [11] is: endpoint: mean survival time, dose: 300.0 mg/kg/injection, schedule: Q01DX001 (ip), vehicle: saline.
Setting [12] is: endpoint: mean survival time, dose: 25.0 mg/kg/injection, schedule: Q04DX003 (ip), vehicle: saline with Tween-80.
[13] abbreviates: endpoint: mean survival time, dose: 100.0 mg/kg/injection, schedule: Q01DX001 (ip), vehicle: saline with Tween-80.
Where [14] appears, read: endpoint: mean survival time, dose: 200.0 mg/kg/injection, schedule: Q01DX001 (ip), vehicle: saline with Tween-80.
The mark [15] stands for this setting: endpoint: mean survival time, dose: 50.0 mg/kg/injection, schedule: Q01DX009 (ip), vehicle: saline with Tween-80.

Where “and” joins values, the source holds several entries; their conditions need not be identical. Equal entries are not always repeated. Toxic doses and inconclusive results are not listed.

Turning to `CCCC(=O)c1cc(O)ccc1O`, the T/C is, setting by setting: under setting [1], 101 % of control; under setting [2], 96 % of control; under setting [3], 104 % of control.

Consider `O=[N+]([O-])c1cc(Cl)c(Cl)cc1Cl`, for which the T/C is 92 % of control under setting [4]; 106 % of control under setting [5]; 104 % of control under setting [6]; 101 % of control under setting [7]; 118 % of control under setting [8].

As to `CCCCCCCCCCC(CCCCCCCCCC)Cc1ccccc1`, the T/C reads like this: under setting [1], 98 % of control; under setting [2], 98 % of control; under setting [3], 93 % of control.

As to `c1ccc(P2(c3ccccc3)=NP(c3ccccc3)(c3ccccc3)=NP(c3ccccc3)(c3ccccc3)=N2)cc1`, the T/C reads like this: (endpoint: mean survival time, dose: 100.0 mg/kg/injection, schedule: Q04DX003 (ip), vehicle: saline) 102 % of control; (endpoint: mean survival time, dose: 200.0 mg/kg/injection, schedule: Q04DX003 (ip), vehicle: saline) 94 % of control; (endpoint: mean survival time, dose: 400.0 mg/kg/injection, schedule: Q04DX003 (ip), vehicle: saline) 96 % of control.

As for `COC12CC(COC(=O)c3cncc(Br)c3)CN(C)C1Cc1cn(C)c3cccc2c13` (stereo unspecified), the T/C (endpoint: mean survival time, dose: 100.0 mg/kg/injection, schedule: Q04DX003 (ip), vehicle: alcohol) is 105 % of control; the T/C (endpoint: mean survival time, dose: 200.0 mg/kg/injection, schedule: Q04DX003 (ip), vehicle: alcohol) is 102 % of control; the T/C (endpoint: mean survival time, dose: 400.0 mg/kg/injection, schedule: Q04DX003 (ip), vehicle: alcohol) was 111 % of control.

As for `O=C1CCCC[CH]1[Hg][Cl]` (stereo unspecified), the T/C (endpoint: mean survival time, dose: 1.25 mg/kg/injection, schedule: Q01DX009 (ip), vehicle: saline) was 95 % of control and the T/C (endpoint: mean survival time, dose: 2.5 mg/kg/injection, schedule: Q01DX009 (ip), vehicle: saline) was 107 % of control.

On to `NCc1ccc(N)cc1`, for which the T/C is, setting by setting: under setting [9], 98 % of control; under setting [10], 95 % of control; under setting [11], 96 % of control.

Regarding `COC(=O)C(N)CS` (stereo unspecified), the T/C by setting is: under setting [5], 101 % of control; under setting [7], 101 % of control; under setting [8], 106 % of control.

Take `CCC(=O)c1cc([N+](=O)[O-])ccc1N`: the T/C reads like this: under setting [5], 95 % of control; under setting [7], 95 % of control.

Turning to `N#CC(CC(=O)c1ccc(Br)cc1)c1ccccc1` (stereo unspecified), the T/C under setting [5] was 95 % of control, the T/C under setting [7] was 91 % of control and the T/C under setting [8] is 95 % of control.

Turning to `Cn1c(N)n[nH]c1=S`, the T/C by setting is: under setting [5], 93 % of control; under setting [7], 108 % of control; under setting [8], 88 % of control.

Regarding `O=C1OCC/C1=C/c1cccc(O)c1`, the T/C was 103 % of control (endpoint: mean survival time, dose: 6.25 mg/kg/injection, schedule: Q04DX002 (ip), vehicle: Klucel (hydroxypropylcellulose) (HPC)) and 107 % of control (endpoint: mean survival time, dose: 25.0 mg/kg/injection, schedule: Q04DX002 (ip), vehicle: Klucel (hydroxypropylcellulose) (HPC)).

Consider `O=C(CCc1ccc(C(=O)C[n+]2ccccc2)cc1)C[n+]1ccccc1`, for which the T/C is, setting by setting: (endpoint: mean survival time, dose: 0.5 mg/kg/injection, schedule: Q04DX003 (ip), vehicle: saline) 104 % of control; (endpoint: mean survival time, dose: 1.0 mg/kg/injection, schedule: Q04DX003 (ip), vehicle: saline) 101 % of control; (endpoint: mean survival time, dose: 2.0 mg/kg/injection, schedule: Q04DX003 (ip), vehicle: saline) 95 % of control.

Consider `COc1ccccc1/C=C/c1ccnc2ccccc12`, for which the T/C was 98 % of control (endpoint: mean survival time, dose: 100.0 mg/kg/injection, schedule: Q01DX009 (ip), vehicle: saline); 95 % of control (endpoint: mean survival time, dose: 200.0 mg/kg/injection, schedule: Q01DX009 (ip), vehicle: saline); 96 % of control (endpoint: mean survival time, dose: 400.0 mg/kg/injection, schedule: Q01DX009 (ip), vehicle: saline).

As for `O=C(O)C1C2CC3C(C2)C31` (stereo unspecified), the T/C was 96 % of control (endpoint: mean survival time, dose: 100.0 mg/kg/injection, schedule: Q01DX009 (ip), vehicle: other) and 104 % of control (endpoint: mean survival time, dose: 200.0 mg/kg/injection, schedule: Q01DX009 (ip), vehicle: other).

For `C=CC[As](=O)(O)c1ccccc1Cl`, the T/C was 98 % of control (endpoint: mean survival time, dose: 6.25 mg/kg/injection, schedule: Q04DX003 (ip), vehicle: saline with Tween-80); 105 % of control (endpoint: mean survival time, dose: 12.5 mg/kg/injection, schedule: Q04DX003 (ip), vehicle: saline with Tween-80); 104 % of control under setting [12].

In the case of `CNC(=O)OCc1c(COC(=O)NC)c(-c2ccc(Cl)c(Cl)c2)n2c1Cc1ccccc1C2`, the T/C runs as follows: (endpoint: median survival time, dose: 12.5 mg/kg/injection, schedule: Q01DX009 (ip), vehicle: distilled water + Tween-80) 122 % of control; (endpoint: median survival time, dose: 25.0 mg/kg/injection, schedule: Q01DX009 (ip), vehicle: distilled water + Tween-80) 122 % of control; (endpoint: median survival time, dose: 50.0 mg/kg/injection, schedule: Q01DX009 (ip), vehicle: distilled water + Tween-80) 157 % of control; (endpoint: median survival time, dose: 100.0 mg/kg/injection, schedule: Q01DX009 (ip), vehicle: distilled water + Tween-80) 164 % of control and 173 % of control; (endpoint: median survival time, dose: 200.0 mg/kg/injection, schedule: Q01DX009 (ip), vehicle: distilled water + Tween-80) 124 % of control.

With `CC(C)(C(=O)O)C(C)(C)C(=O)O`, the T/C by setting is: under setting [13], 98 % of control; under setting [14], 98 % of control; (endpoint: mean survival time, dose: 400.0 mg/kg/injection, schedule: Q01DX001 (ip), vehicle: saline with Tween-80) 101 % of control.

As for `COc1ccc(C(CC(=O)c2ccccc2)CC(=O)c2ccccc2)cc1`, the T/C was 94 % of control (endpoint: mean survival time, dose: 25.0 mg/kg/injection, schedule: Q01DX009 (ip), vehicle: saline with Tween-80); 101 % of control under setting [12]; 96 % of control under setting [15]; 93 % of control (endpoint: mean survival time, dose: 50.0 mg/kg/injection, schedule: Q04DX003 (ip), vehicle: saline with Tween-80); 87 % of control under setting [5].

For `N#CC(OC1OC(COC2OC(CO)C(O)C(O)C2O)C(O)C(O)C1O)c1ccccc1` (stereo unspecified), the T/C is 94 % of control (endpoint: mean survival time, dose: 12.5 mg/kg/injection, schedule: Q01DX009 (ip), vehicle: water); 88 % of control and 104 % of control (endpoint: mean survival time, dose: 25.0 mg/kg/injection, schedule: Q01DX009 (ip), vehicle: water); 98 % of control and 102 % of control (endpoint: mean survival time, dose: 50.0 mg/kg/injection, schedule: Q01DX009 (ip), vehicle: water); 94 % of control and 96 % of control (endpoint: mean survival time, dose: 100.0 mg/kg/injection, schedule: Q01DX009 (ip), vehicle: water); 91 % of control and 102 % of control (endpoint: mean survival time, dose: 200.0 mg/kg/injection, schedule: Q01DX009 (ip), vehicle: water); 95 % of control and 97 % of control (endpoint: mean survival time, dose: 400.0 mg/kg/injection, schedule: Q01DX009 (ip), vehicle: water). Besides, under “endpoint: mean survival time, dose: 800.0 mg/kg/injection, schedule: Q01DX009 (ip), vehicle: water”, the T/C was 93 % of control and 100 % of control.

For the compound `CN(C)c1ccc(C(O)C(N)=O)cc1` (stereo unspecified), the T/C is 94 % of control (endpoint: mean survival time, dose: 6.25 mg/kg/injection, schedule: Q01DX009 (ip), vehicle: saline); 102 % of control (endpoint: mean survival time, dose: 6.25 mg/kg/injection, schedule: Q04DX003 (ip), vehicle: saline); 94 % of control (endpoint: mean survival time, dose: 12.5 mg/kg/injection, schedule: Q01DX009 (ip), vehicle: saline); 95 % of control (endpoint: mean survival time, dose: 12.5 mg/kg/injection, schedule: Q04DX003 (ip), vehicle: saline); 93 % of control (endpoint: mean survival time, dose: 25.0 mg/kg/injection, schedule: Q01DX009 (ip), vehicle: saline); 106 % of control (endpoint: mean survival time, dose: 25.0 mg/kg/injection, schedule: Q04DX003 (ip), vehicle: saline).

Turning to `CCCCCCCCCCCCCCCCCC(=O)N1CC[N+](C)(C)CC1`, the T/C was 101 % of control under setting [9], 100 % of control under setting [10] and 107 % of control under setting [11].

For the compound `CN1C(=O)CN(CCN2CC(=O)N(c3ccccc3)C2=S)C1=S`, the T/C is 93 % of control under setting [15], 93 % of control under setting [4] and 89 % of control under setting [6].

As for `CCOC(CC)c1ccccc1` (stereo unspecified), the T/C reads like this: under setting [15], 103 % of control; under setting [4], 103 % of control; under setting [6], 106 % of control.

`Nc1ccc(-c2ccc(C(=O)O)cc2)cc1`: the T/C by setting is: under setting [13], 104 % of control and 108 % of control; (endpoint: mean survival time, dose: 100.0 mg/kg/injection, schedule: Q04DX002 (ip), vehicle: saline with Tween-80) 101 % of control and 107 % of control; under setting [14], 93 % of control and 98 % of control; (endpoint: mean survival time, dose: 200.0 mg/kg/injection, schedule: Q04DX002 (ip), vehicle: saline with Tween-80) 95 % of control and 96 % of control; (endpoint: mean survival time, dose: 400.0 mg/kg/injection, schedule: Q04DX002 (ip), vehicle: saline with Tween-80) 87 % of control.
